According to ChEMBL document CHEMBL5465560, “Selectivity Literature for EUbOPEN Chemogenomic Library” (2024):

Legend:
Misshapen-like kinase 1 = Misshapen-like kinase 1 (Homo sapiens, UniProt Q8N4C8); test: Selectivity interaction (ProQinase) EUB0000171b MINK1
[1] = molecular target: Tyrosine-protein kinase BTK (Homo sapiens, UniProt Q06187); test: Selectivity interaction (KinomeScan (DiscoverX)) EUB0001079a BTK; conditions: at 1 µM
[2] = molecular target: Cyclin-dependent kinase 14 (Homo sapiens) (UniProt O94921); test: Selectivity interaction (KinomeScan (DiscoverX)) EUB0001079a CDK14; conditions: at 1 µM
[3] = molecular target: cAMP-dependent protein kinase catalytic subunit alpha (Homo sapiens, UniProt P17612); test: Selectivity interaction (Millipore kinase profiler) EUB0000124b PRKACA; conditions: at 10 µM
[4] = molecular target: T1, Tyrosine-protein kinase Tec (Homo sapiens) (UniProt P42680); conditions: at 10 µM
T1 sequence (whole entry): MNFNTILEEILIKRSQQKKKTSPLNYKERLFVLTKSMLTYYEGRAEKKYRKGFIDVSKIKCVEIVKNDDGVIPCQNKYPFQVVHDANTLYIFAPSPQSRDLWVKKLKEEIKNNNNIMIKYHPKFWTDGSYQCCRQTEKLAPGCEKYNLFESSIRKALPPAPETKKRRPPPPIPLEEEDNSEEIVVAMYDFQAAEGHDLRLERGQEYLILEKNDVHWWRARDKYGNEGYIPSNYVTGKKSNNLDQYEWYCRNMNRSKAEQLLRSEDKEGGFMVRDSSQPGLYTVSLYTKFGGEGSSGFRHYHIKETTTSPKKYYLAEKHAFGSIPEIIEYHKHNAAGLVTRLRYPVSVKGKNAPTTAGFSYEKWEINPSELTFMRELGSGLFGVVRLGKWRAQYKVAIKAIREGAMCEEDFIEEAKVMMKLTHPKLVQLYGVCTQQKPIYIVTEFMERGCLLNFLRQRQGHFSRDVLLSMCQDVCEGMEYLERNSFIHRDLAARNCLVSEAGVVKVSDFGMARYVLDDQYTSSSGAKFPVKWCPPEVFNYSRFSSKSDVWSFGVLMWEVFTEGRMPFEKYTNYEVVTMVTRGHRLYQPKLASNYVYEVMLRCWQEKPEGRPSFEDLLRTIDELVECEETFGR

[5] = molecular target: T2, Serine/threonine-protein kinase 3 (Homo sapiens) (UniProt Q13188); test: Selectivity interaction (ActivX KiNativ screen (kinase selectivity in THP-1 cell lysates)) EUB0000639a STK3; assay type: subcellular; conditions: lysate, at 0.01 µM
T2 sequence (whole entry): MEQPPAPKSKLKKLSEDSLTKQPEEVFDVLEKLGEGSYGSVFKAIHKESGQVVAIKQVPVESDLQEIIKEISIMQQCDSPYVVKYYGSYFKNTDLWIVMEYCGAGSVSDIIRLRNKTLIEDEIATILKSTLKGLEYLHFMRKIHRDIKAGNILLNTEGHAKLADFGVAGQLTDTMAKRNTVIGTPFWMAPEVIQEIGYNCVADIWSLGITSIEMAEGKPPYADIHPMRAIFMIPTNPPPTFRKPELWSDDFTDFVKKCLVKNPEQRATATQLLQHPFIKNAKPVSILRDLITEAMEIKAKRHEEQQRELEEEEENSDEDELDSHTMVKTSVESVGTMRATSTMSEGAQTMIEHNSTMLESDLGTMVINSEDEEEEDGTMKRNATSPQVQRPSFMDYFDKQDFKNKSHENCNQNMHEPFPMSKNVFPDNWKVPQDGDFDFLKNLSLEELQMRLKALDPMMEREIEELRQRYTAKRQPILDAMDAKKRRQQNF

[6] = molecular target: Platelet-derived growth factor receptor alpha (Homo sapiens, UniProt P16234); test: Selectivity interaction (Kinase panel (Invitrogen)) EUB0000639a PDGFRA; conditions: at 200 nM
Platelet-derived growth factor receptor alpha, sequence (P16234 whole entry): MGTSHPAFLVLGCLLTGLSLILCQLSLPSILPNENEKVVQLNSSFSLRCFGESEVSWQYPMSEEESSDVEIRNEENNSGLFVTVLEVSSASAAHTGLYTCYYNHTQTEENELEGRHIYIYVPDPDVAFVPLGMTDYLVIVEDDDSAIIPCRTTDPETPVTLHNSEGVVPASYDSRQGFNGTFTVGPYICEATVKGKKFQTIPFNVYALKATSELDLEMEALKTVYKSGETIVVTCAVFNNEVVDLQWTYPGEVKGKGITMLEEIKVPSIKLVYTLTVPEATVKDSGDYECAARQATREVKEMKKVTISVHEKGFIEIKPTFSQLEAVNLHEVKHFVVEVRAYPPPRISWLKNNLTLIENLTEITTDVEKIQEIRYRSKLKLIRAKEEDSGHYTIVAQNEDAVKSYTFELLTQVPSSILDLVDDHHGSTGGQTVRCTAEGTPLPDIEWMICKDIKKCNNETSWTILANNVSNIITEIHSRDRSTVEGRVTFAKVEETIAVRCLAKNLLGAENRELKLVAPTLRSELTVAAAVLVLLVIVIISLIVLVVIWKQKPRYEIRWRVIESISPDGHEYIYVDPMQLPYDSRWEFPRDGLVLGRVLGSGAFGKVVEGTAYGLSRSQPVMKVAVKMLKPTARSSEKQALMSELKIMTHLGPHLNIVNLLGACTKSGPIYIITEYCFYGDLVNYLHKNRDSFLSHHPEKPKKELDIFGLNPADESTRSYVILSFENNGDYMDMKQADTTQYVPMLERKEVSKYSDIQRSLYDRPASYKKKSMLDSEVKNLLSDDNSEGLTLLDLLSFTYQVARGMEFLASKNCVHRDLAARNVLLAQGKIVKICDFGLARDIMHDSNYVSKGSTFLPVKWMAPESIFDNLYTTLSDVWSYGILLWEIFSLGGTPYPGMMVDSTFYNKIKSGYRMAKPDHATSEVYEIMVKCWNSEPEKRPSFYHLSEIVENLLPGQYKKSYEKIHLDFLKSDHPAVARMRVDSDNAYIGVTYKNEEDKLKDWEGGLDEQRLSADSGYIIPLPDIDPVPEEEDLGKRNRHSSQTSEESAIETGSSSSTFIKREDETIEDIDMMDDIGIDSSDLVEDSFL

[7] = molecular target: Mitogen-activated protein kinase 3 (Homo sapiens, UniProt P27361); test: Selectivity interaction (KinomeScan (DiscoverX)) EUB0000607a MAPK3; conditions: at 10 µM
Mitogen-activated protein kinase 3, sequence (P27361 whole entry): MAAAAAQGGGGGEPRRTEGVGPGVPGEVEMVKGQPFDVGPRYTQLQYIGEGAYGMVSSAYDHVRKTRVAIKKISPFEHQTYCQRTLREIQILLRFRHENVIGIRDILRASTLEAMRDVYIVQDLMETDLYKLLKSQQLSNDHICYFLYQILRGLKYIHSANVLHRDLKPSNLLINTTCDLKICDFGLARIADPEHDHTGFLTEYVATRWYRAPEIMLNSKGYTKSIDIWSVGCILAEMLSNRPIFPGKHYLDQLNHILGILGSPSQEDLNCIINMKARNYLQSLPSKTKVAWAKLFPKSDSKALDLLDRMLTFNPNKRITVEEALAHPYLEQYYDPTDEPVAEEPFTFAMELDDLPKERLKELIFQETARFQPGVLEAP

[8] = molecular target: Maternal embryonic leucine zipper kinase (Homo sapiens) (UniProt Q14680); test: Selectivity interaction (KinomeScan (DiscoverX)) EUB0001049a MELK; conditions: at 1 µM
[9] = molecular target: Tyrosine-protein kinase Srms (Homo sapiens) (UniProt Q9H3Y6); test: Selectivity interaction (KinomeScan (DiscoverX)) EUB0000595a SRMS; conditions: at 10 µM
Tyrosine-protein kinase Srms (Homo sapiens), sequence (Q9H3Y6 whole entry): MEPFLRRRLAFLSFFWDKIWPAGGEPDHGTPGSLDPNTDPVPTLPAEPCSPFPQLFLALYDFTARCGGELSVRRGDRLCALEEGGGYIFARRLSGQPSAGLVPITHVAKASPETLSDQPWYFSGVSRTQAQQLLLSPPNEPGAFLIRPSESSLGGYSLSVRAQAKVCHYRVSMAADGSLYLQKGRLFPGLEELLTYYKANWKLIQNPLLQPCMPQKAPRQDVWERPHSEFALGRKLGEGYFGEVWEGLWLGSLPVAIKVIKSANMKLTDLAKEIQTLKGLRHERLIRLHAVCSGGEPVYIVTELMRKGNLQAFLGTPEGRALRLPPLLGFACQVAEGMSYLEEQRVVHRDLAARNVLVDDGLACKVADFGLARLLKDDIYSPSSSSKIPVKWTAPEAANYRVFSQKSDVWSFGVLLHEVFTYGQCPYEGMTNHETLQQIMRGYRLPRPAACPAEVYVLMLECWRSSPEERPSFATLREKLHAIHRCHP

[10] = molecular target: Wee1-like protein kinase (Homo sapiens) (UniProt P30291); test: Selectivity interaction (KinomeScan (DiscoverX)) EUB0000045b WEE1
Wee1-like protein kinase (Homo sapiens), sequence (P30291 whole entry, looked up): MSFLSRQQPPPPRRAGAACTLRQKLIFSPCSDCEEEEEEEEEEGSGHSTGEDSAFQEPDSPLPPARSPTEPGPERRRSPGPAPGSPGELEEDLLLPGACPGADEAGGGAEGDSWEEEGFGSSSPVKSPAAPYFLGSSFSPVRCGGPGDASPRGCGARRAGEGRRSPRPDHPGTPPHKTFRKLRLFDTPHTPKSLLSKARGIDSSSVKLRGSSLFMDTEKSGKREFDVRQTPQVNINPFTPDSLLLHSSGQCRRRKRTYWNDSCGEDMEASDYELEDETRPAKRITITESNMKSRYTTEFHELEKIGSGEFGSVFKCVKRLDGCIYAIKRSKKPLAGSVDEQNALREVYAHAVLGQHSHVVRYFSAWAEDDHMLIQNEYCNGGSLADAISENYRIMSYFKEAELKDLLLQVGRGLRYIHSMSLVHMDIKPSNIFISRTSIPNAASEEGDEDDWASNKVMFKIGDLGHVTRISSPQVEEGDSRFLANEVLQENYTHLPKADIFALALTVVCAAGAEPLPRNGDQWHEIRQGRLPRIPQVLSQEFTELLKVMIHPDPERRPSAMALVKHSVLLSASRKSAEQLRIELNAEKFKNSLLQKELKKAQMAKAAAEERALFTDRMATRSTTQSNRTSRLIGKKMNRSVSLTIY

[11] = tested on: Tyrosine-protein kinase ABL1 (Homo sapiens), P00519 [Q252H]; test: Selectivity interaction (KinomeScan (DiscoverX)) EUB0000045b ABL1; conditions: at 10 µM
[12] = molecular target: Serine/threonine-protein kinase PAK 2 (Homo sapiens) (UniProt Q13177); test: Selectivity interaction (KinomeScan (DiscoverX)) EUB0000618a PAK2; conditions: at 10 µM
[13] = molecular target: Serine/threonine-protein kinase 10 (Homo sapiens) (UniProt O94804); test: Selectivity interaction (KinomeScan (DiscoverX)) EUB0000618a STK10; conditions: at 10 µM
[14] = molecular target: Ribosomal protein S6 kinase alpha-3 (Homo sapiens, UniProt P51812); test: Selectivity interaction (Ambit KINOMEscan and KiNATiv profiling in Jurkat cells) EUB0000090b RPS6KA3; assay type: cell-based; conditions: at 1 µM
[15] = molecular target: Fibroblast growth factor receptor 2 (Homo sapiens) (UniProt P21802); test: Selectivity interaction (Kinase screening (Nanosyn)) EUB0000604a FGFR2
[16] = molecular target: T3, Rhodopsin kinase GRK1 (Homo sapiens) (UniProt Q15835); test: Selectivity interaction (KinomeScan (DiscoverX)) EUB0001619a GRK1; conditions: at 1 µM
T3 sequence (whole entry): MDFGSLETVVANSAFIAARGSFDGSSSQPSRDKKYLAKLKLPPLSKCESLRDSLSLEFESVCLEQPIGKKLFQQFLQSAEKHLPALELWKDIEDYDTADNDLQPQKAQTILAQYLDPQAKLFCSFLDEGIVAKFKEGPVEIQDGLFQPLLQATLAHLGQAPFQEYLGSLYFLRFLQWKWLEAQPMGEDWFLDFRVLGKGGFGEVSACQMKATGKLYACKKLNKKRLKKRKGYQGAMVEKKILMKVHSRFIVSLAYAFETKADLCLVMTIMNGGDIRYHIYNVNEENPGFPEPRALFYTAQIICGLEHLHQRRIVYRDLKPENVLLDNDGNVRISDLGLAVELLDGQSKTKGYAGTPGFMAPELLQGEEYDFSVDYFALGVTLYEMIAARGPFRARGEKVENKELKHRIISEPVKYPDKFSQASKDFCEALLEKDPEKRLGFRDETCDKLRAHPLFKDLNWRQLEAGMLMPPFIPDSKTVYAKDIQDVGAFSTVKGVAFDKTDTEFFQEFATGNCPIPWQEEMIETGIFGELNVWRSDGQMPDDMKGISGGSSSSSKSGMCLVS

[17] = molecular target: Ephrin type-A receptor 2 (Homo sapiens) (UniProt P29317); test: Selectivity interaction (KinomeScan (DiscoverX)) EUB0001619a EPHA2; conditions: at 1 µM
Ephrin type-A receptor 2 (Homo sapiens), sequence (P29317 whole entry): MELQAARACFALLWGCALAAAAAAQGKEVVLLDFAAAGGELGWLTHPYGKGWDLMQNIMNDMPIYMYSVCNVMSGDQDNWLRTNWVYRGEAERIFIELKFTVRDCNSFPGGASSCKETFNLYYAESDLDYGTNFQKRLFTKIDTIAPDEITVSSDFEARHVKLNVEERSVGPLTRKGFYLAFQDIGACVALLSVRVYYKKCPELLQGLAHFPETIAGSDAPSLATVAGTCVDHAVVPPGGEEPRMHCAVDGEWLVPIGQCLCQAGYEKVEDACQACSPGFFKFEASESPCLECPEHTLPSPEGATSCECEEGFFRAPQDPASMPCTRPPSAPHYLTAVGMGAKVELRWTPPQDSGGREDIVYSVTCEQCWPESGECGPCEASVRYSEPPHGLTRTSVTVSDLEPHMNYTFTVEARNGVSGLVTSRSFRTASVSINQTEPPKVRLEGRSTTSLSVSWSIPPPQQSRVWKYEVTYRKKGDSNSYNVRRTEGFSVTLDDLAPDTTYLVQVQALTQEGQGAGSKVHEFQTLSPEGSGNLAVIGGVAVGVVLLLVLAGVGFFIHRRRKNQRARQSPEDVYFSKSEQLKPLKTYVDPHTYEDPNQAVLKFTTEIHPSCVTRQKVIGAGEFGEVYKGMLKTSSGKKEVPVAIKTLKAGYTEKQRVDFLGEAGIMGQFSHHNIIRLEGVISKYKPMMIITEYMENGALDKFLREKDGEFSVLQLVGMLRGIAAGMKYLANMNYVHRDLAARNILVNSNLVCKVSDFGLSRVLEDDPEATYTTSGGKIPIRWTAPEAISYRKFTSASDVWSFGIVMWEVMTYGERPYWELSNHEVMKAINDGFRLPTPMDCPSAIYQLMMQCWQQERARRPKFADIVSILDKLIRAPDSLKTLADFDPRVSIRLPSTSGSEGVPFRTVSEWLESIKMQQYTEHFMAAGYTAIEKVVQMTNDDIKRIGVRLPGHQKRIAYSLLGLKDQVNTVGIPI

Misshapen-like kinase 1, sequence (Q8N4C8 whole entry, looked up): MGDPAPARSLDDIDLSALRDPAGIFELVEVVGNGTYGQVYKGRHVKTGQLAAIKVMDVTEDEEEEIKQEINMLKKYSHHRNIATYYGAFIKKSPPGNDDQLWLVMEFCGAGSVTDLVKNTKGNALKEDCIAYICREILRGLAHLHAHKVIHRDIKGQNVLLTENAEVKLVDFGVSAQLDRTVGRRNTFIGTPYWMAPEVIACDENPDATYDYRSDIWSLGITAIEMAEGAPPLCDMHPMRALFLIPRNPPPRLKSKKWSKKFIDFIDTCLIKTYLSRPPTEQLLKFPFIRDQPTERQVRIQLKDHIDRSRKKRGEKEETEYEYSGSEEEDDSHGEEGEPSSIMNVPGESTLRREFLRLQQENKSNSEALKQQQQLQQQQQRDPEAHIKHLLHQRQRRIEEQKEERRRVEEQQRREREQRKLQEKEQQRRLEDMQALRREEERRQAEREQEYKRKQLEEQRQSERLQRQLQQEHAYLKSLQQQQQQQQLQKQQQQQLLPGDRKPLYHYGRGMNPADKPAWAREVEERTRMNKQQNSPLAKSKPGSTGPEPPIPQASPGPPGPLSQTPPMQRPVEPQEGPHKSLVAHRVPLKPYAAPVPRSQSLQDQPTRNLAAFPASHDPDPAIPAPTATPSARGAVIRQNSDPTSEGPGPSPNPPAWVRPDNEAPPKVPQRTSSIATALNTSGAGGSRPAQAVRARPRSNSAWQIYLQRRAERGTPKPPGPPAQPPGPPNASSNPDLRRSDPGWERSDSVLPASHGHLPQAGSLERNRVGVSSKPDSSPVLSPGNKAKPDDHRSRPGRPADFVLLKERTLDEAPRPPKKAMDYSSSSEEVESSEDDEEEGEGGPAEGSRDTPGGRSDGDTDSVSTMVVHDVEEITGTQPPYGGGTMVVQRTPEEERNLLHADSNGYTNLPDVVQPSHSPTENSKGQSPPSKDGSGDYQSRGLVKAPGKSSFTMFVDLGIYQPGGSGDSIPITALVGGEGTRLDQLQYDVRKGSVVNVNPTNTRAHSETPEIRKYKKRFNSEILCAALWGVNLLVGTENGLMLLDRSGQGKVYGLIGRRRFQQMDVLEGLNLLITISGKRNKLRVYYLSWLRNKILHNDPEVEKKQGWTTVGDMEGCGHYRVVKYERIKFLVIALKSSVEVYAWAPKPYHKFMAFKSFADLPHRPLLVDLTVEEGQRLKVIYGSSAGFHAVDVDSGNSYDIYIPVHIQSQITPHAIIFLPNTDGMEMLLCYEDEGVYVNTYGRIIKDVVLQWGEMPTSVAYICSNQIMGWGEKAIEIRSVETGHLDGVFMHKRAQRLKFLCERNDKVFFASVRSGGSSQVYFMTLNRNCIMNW

## C=CC(=O)Nc1cccc(C(=O)Nc2ccc(Nc3cc(-c4[nH]c(SC)nc4C)ccn3)cc2)c1
Misshapen-like kinase 1; at 1 µM
  % of control: 75%
Misshapen-like kinase 1; at 5 µM
  % of control: 44%

## Nc1cnc(N2CCc3cc(S(=O)(=O)Nc4c(F)cc(Cl)cc4F)cc(N4CCCC4=O)c32)nc1 [TP-020n]
[1]
  % of control: 100%
[2]
  % of control: 100%

## CC(=O)Nc1cccc(-n2c(=O)n(C3CC3)c(=O)c3c(Nc4ccc(I)cc4F)n(C)c(=O)c(C)c32)c1
[3]
  % of control: 98%

## Cc1cc([C@@H](C)Nc2ccccc2C(=O)O)c2nc(N3CCOCC3)cc(=O)n2c1 [AZD-6482]
[4]
  % of control: 91%

## CC[C@@H]1[C@H](F)C(=O)N[C@@H]1COc1nccc2cc(C(N)=O)c(OC)cc12 [ZIMLOVISERTIB]
[5]
  % of inhibition: -19.5%
[6]
  % of inhibition: 9.99%

## CNC(=O)Nc1ccc(-c2nc(N3CC4CCC(C3)O4)c3cnn(C4CCC5(CC4)OCCO5)c3n2)cc1
[7]
  % of control: 97%

## COc1cc(Nc2nc(C)cc(-c3cnn4nc(OC)ccc34)n2)cc(C(F)(F)F)c1
[8]
  % of control: 97%

## COCC(=O)NC/C=C/c1ccc2ncnc(Nc3ccc(Oc4ccc(C)nc4)c(C)c3)c2c1 [CP-724714]
[9]
  % of control: 71%

## C=CC(=O)Nc1cc(-n2c(=O)ccc3cnc4ccc(-c5ccc(NS(C)(=O)=O)cc5)cc4c32)ccc1C
[10]; at 1 µM
  % of control: 100%
[10]; at 10 µM
  % of control: 92%
[11]
  % of control: 75%

## O[C@H]1CC[C@H](Nc2ncc3nc(Nc4c(F)cc(F)cc4F)n([C@H]4CCOC4)c3n2)CC1
[12]
  % of control: 100%
[13]
  % of control: 97%

## CN(C)C/C=C/C(=O)Nc1ccc(C(=O)N2CCCC(Nc3ncc(Cl)c(-c4c[nH]c5ccccc45)n3)C2)cc1 (stereo not given)
[14]
  % of control: 5%

## Cc1cnc(Nc2ccc(F)cc2Cl)nc1-c1c[nH]c(C(=O)N[C@H](CO)c2cccc(Cl)c2)c1
[15]
  % of inhibition: 12%

## N#Cc1cccc(-c2c[nH]c3ncnc(N4CCOCC4)c23)c1
[16]
  % of control: 74%
[17]
  % of control: 100%
